We go through six compounds from ChEMBL document CHEMBL1201862, “PubChem BioAssay data set” (2004).

SMILES strings stand for the structures. Activity calls are given as the source filed them.

In data set [1] the target is Intestinal-type alkaline phosphatase (Homo sapiens, UniProt P09923). Description: human intestinal alkaline phosphatase activators, dose response, biochemical, luminescence, uHTS hits (AID 463120). Type of data set: functional.
Data set [2] concerns the target T1, Calpain-2 catalytic subunit (Sus scrofa, UniProt P43367).
T1 sequence (P43367 whole entry): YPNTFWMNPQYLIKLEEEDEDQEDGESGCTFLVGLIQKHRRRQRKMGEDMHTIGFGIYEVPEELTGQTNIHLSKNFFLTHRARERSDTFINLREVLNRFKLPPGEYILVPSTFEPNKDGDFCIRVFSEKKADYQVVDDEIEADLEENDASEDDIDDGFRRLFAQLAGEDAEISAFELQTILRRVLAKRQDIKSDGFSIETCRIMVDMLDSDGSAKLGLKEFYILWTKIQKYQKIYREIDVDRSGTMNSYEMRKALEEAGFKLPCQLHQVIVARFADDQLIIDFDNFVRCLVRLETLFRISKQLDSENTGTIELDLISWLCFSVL
The experiment in a line: m-calpain protease blockers, concentration series – biochemical, fluorogenic peptide substrate, dose response (AID 1420). Type of data set: functional.

Data set [3] deals with T2, Lysine-specific demethylase 4C (Homo sapiens, UniProt Q9H3R0).
T2 sequence (Q9H3R0 whole entry): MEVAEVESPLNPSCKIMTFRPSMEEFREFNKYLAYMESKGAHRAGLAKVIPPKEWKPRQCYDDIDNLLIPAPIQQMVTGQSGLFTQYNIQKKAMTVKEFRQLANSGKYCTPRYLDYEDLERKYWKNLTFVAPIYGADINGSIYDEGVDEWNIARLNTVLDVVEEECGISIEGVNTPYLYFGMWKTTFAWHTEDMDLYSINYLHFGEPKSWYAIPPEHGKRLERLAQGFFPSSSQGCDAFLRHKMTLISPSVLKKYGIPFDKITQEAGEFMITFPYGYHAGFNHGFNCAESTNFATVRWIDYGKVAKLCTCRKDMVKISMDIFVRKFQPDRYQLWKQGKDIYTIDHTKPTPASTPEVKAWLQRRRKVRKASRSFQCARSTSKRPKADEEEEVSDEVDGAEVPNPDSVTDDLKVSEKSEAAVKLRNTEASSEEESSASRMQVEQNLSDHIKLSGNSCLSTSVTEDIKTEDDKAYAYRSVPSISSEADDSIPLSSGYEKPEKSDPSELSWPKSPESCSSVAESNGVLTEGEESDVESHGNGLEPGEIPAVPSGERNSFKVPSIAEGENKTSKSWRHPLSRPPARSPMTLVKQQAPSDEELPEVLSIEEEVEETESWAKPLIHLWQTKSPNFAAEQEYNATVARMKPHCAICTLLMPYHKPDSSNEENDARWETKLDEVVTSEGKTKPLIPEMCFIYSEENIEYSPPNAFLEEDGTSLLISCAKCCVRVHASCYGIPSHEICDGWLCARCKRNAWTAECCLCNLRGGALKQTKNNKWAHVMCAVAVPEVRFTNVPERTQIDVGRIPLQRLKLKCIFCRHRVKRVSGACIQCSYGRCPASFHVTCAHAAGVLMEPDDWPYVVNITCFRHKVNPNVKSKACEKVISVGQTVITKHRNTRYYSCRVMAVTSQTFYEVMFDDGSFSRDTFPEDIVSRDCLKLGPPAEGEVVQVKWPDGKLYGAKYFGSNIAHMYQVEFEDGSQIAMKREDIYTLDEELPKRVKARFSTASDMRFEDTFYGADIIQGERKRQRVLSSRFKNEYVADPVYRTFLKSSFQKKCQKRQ
The experiment in a line: inhibition of JMJD2C H3K9me3 demethylation – biochemical, DELFIA europium, cherry-picked samples, dose response (AID 488835). The data set is classed as functional.

The target of data set [4] is Lysine-specific demethylase 4A (Homo sapiens, UniProt O75164). Description: inhibition of JMJD2A H3K9me3 demethylation – biochemical, DELFIA europium, cherry-picked samples, selectivity assay for GASC-1 inhibitor project, dose response (AID 488840).
Lysine-specific demethylase 4A, sequence (O75164 whole entry): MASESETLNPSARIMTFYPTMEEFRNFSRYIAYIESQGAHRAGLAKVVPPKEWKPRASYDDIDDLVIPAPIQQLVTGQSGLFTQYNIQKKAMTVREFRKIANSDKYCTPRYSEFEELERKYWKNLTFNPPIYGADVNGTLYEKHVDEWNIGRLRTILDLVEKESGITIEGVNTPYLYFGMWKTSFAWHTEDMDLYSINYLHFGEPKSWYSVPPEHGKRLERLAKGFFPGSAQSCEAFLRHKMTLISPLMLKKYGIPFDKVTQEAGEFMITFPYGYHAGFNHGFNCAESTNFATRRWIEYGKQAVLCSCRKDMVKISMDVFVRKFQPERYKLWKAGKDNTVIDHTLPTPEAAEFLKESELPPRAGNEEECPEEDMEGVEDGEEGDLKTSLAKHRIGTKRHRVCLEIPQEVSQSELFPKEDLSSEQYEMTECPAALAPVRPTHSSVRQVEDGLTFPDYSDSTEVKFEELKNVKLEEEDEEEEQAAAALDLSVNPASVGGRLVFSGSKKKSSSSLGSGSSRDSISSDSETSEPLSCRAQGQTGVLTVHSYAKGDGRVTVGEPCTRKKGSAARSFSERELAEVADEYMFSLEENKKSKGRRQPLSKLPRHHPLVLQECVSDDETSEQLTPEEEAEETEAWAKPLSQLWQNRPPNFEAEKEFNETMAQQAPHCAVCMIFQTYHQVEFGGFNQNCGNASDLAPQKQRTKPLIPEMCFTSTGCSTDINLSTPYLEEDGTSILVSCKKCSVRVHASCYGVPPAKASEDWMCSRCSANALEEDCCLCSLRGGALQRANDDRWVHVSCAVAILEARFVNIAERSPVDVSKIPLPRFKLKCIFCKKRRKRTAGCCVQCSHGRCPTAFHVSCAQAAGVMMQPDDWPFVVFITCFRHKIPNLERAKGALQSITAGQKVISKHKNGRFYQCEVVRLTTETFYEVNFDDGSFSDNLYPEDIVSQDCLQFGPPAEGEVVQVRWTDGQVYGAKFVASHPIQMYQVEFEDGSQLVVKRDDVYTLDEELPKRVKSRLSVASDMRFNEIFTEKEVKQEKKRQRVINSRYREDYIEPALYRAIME
A further data set has as its target Cytochrome P450 3A4 (Homo sapiens, UniProt P08684).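 Further: CYP3A4 tested as one member of a cytochrome P450 panel screen.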
Data set [5] is described as follows: viability of HCT116 lacking mutant beta-catenin – cell-based, human colon tumor, dose response (AID 1045).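 Further: HCT116 colon tumor cells with beta catenin knocked out; cells exposed to compound for 60 hours.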 The data set is classed as functional.
The next data set addresses T3, Coagulation factor XII (Homo sapiens, UniProt P00748).
T3 sequence (P00748 whole entry): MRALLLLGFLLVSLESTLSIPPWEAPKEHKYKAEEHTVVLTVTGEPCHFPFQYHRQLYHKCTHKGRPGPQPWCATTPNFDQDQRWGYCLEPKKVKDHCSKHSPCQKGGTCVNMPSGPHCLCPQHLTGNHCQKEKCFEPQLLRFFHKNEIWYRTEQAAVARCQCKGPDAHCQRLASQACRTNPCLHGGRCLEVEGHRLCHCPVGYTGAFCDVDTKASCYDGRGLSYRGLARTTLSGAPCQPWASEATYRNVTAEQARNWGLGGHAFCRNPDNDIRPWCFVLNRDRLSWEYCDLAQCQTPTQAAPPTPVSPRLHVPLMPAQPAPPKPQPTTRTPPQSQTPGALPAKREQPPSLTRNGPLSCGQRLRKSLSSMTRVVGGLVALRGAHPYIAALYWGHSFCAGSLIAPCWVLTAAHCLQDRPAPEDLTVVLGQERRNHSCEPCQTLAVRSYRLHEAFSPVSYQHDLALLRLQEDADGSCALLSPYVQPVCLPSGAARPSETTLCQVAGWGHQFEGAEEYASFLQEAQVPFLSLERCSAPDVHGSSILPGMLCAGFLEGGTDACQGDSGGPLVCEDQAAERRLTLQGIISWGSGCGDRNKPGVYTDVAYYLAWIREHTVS
The data set is classed as functional.

The target of the next data set is Cytochrome P450 2C9 (Homo sapiens, UniProt P11712).
Cytochrome P450 2C9, sequence (P11712 whole entry): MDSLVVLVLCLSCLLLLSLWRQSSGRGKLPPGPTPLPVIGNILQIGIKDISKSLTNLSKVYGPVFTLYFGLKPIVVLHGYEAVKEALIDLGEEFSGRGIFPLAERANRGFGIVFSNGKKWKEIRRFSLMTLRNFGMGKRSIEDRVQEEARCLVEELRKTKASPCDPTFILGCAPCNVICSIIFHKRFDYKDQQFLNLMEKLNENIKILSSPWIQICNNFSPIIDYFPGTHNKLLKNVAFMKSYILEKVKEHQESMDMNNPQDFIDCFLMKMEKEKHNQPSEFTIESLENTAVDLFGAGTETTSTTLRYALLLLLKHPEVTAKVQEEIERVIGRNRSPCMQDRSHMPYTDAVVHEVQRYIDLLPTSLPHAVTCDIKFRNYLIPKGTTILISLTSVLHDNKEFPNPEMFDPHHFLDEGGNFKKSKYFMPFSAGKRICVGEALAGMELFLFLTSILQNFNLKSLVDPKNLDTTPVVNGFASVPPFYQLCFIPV
A short description of data set [6]: viability of PTEN-deleted HCT116 cells – cell-based, HCT116 PTEN knockout, dose response (AID 1047).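 Further: HCT116 colon tumor cells with PTEN knocked out; cells exposed to compound for 60 hours before readout; potency for loss of cell viability measured by luminescence.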 Type of data set: functional.
The target in data set [7] is T4, Tyrosine-protein phosphatase non-receptor type 22 (Homo sapiens, UniProt Q9Y2R2).
T4 sequence (Q9Y2R2 whole entry): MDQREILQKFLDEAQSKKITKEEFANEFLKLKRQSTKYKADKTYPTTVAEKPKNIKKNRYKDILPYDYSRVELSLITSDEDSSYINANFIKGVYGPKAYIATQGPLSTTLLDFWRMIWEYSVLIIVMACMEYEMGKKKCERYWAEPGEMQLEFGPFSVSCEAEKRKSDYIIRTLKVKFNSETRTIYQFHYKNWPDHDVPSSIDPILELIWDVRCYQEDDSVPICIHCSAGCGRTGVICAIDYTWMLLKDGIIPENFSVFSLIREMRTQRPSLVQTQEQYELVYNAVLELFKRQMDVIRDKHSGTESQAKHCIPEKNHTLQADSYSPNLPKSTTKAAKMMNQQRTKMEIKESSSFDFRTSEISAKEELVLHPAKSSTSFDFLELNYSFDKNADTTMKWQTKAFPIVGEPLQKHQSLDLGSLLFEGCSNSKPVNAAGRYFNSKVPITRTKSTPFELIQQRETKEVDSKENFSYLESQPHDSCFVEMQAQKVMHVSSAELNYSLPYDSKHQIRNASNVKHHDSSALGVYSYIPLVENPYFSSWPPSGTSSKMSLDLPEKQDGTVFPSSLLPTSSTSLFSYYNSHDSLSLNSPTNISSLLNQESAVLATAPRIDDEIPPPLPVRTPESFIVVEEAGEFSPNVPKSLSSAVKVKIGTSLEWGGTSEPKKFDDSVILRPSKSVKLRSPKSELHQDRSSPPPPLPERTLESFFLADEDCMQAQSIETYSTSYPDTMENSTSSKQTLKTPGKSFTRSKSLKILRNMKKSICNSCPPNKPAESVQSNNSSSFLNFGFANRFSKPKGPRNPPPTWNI
The data set is classed as functional.

Data set [8] addresses T5, Tyrosine-protein phosphatase non-receptor type 7 (Homo sapiens, UniProt P35236).
T5 sequence (P35236 whole entry): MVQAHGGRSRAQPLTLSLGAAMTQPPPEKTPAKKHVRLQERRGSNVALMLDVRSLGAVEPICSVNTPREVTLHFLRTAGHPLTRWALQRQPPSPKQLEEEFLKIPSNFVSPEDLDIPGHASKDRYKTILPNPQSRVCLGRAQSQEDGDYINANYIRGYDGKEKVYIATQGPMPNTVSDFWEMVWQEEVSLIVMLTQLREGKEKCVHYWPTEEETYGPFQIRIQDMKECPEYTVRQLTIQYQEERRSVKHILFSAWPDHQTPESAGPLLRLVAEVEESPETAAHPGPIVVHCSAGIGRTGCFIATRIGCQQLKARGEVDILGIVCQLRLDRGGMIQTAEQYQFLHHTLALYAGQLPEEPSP
Type of data set: functional.

Data set [9] addresses T4, Tyrosine-protein phosphatase non-receptor type 22. The data set is classed as functional. This is another data set of the same source.
In data set [10] the target is Nucleotide-binding oligomerization domain-containing protein 2 (Homo sapiens, UniProt Q9HC29). Description: inhibition of MDP-driven NOD2 NF-kB reporter – cell-based, set 3, SAR follow-up (AID 2799). The data set is classed as functional.
Nucleotide-binding oligomerization domain-containing protein 2, sequence (Q9HC29 whole entry, the tested form may be a part): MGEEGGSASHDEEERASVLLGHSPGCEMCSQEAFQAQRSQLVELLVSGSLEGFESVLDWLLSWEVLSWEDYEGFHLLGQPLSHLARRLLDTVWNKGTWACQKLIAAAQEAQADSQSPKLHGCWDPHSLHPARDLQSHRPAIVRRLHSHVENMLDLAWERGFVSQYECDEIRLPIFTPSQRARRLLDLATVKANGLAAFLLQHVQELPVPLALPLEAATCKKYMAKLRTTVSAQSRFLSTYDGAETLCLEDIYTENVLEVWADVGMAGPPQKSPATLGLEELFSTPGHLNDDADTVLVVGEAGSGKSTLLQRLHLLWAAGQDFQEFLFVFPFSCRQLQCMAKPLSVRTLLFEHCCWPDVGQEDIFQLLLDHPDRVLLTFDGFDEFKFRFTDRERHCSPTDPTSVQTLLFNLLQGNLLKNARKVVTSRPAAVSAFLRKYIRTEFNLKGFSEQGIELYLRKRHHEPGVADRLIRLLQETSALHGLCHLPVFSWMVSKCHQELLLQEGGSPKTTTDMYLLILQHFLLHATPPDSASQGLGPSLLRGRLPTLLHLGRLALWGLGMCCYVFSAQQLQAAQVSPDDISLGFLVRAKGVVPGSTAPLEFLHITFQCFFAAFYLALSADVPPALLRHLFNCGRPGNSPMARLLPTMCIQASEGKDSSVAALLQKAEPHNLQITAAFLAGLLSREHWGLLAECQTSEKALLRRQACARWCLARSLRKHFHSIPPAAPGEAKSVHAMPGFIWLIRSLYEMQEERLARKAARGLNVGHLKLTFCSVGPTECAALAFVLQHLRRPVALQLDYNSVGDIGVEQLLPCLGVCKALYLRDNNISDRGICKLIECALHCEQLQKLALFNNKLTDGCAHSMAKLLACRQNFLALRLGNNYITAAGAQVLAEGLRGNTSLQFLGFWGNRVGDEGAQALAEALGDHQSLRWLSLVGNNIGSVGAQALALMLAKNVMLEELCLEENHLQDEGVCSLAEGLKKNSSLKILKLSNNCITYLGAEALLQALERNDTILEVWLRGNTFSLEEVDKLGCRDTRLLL
For a further data set, the system named is HEK293. The experiment in a line: SAR analysis of compounds that are cytotoxic to HEK293 - Set 3. [Related pubchem assays (depositor defined):AID1575, AID1578, AID1848, AID1849, AID2001, AID2333, AID2334, AID2335, AID2337, AID2469]. Type of data set: functional, cell-based. The settings on record: Homo sapiens.
For another data set, the target named is Tumor necrosis factor (Homo sapiens, UniProt P01375). Description: analog potency on TNFa NF-kB signaling – cell-based, set 3, SAR follow-up (AID 2801). The data set is classed as functional.
Tumor necrosis factor, sequence (P01375 whole entry, the tested form may be a part): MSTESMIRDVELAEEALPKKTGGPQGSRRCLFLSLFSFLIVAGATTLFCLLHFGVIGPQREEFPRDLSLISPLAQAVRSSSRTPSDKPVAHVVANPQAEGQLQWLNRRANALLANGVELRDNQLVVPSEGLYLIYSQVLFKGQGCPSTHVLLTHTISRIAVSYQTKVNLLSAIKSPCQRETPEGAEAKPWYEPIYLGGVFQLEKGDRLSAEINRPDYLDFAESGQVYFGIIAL
Data set [11] addresses T6, Nucleotide-binding oligomerization domain-containing protein 1 (Homo sapiens, UniProt Q9Y239).
T6 sequence (Q9Y239 whole entry): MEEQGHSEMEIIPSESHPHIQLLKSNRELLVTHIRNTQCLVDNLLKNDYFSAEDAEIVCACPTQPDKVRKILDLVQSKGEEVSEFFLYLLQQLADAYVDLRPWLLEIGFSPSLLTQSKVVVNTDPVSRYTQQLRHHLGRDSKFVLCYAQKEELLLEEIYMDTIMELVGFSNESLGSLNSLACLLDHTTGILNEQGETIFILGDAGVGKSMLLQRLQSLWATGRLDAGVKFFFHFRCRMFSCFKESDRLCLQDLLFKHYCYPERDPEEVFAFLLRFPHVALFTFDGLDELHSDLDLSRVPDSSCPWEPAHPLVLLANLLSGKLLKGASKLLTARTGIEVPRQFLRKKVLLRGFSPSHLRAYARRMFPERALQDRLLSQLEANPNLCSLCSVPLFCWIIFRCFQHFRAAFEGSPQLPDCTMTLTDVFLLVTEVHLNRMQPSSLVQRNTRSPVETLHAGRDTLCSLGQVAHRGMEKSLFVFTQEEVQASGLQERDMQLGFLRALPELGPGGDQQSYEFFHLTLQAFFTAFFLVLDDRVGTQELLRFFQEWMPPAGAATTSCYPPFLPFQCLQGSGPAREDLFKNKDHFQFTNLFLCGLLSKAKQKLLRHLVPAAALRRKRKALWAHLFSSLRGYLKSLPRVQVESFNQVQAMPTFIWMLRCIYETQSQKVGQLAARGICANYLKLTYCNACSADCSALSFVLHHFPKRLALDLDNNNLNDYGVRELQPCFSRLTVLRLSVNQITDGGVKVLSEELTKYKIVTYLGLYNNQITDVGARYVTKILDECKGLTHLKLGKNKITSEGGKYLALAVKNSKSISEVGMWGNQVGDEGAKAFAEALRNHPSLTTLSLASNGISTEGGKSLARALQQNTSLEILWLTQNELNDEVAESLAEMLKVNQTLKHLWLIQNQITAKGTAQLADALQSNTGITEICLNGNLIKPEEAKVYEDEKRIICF
Description: SAR analysis of compounds that inhibit NOD1 - Set 3. [Related pubchem assays (depositor defined):AID1566, AID1575, AID1578, AID1849, AID1852, AID2333, AID2335, AID2466]. The data set is classed as functional.

Intestinal-type alkaline phosphatase, sequence (P09923 whole entry): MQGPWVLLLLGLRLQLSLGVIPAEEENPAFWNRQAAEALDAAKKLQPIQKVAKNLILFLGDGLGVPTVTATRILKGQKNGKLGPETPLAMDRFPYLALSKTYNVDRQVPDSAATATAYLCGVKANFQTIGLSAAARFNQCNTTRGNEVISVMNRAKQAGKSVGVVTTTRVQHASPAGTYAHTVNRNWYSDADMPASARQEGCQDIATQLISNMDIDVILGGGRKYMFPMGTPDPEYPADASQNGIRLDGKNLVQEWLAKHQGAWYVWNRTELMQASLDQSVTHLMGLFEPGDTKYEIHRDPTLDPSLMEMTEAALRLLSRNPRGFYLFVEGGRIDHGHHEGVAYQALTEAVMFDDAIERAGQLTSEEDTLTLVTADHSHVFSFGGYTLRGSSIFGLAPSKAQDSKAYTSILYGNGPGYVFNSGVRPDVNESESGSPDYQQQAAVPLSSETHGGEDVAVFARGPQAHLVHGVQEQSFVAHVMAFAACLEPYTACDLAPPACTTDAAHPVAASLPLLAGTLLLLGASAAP
Cytochrome P450 3A4, sequence (P08684 whole entry): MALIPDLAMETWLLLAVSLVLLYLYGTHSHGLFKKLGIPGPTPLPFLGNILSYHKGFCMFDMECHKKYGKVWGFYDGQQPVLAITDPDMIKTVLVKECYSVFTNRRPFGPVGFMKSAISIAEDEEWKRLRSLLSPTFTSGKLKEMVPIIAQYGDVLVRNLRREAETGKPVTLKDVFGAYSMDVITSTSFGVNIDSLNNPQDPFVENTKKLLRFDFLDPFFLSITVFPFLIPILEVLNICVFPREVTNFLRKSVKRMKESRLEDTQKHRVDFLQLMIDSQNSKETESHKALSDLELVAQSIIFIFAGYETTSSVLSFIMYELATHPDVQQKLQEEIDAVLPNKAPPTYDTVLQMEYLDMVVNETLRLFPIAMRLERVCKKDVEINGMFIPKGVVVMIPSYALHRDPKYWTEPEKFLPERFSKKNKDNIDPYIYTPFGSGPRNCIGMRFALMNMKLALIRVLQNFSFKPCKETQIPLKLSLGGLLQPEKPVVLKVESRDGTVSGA

One may read the EC50 as the midpoint of the concentration-response curve. One may read the IC50 as the point on the concentration scale where inhibition reaches its midpoint. In the case of `Cc1cc2cc3c(cc2nc1SCC(=O)Nc1nc(C)c(C)s1)OCO3`, the EC50 in [1] is 25 µM (active). For the same compound, in [2], the IC50 was 24.1 µM (not active).

A word on the AC50: it is the concentration at which the activity in the assay is half-maximal. On to `CC(C)Oc1ccc(Cc2c(O)nc(O)nc2O)cc1`, for which the AC50 in data set [3] is 2.86 µM (active); in data set [4] it was 17.5 µM (active).

In the case of `Cc1ccccc1NC(=O)c1cccc2nc3ccccc3nc12`, the AC50 result on Cytochrome P450 3A4 is “inconclusive”; on Cytochrome P450 2C9, 8.91 µM (inconclusive). For the same compound, the results for the EC50 in data set [5] and in data set [6] were 21.9 µM (active) and 23.8 µM (active), respectively. At Coagulation factor XII, the IC50 is > 50 µM (inactive).

Take `COc1ccc(C2C(C(C)=O)=C(O)C(=O)N2c2nccs2)cc1OC` (configuration not stated): on Coagulation factor XII, the IC50 is > 50 µM (inactive).

As for `Cc1nn(Cc2cccc(C(=O)NC34CC5CC(CC(C5)C3)C4)c2)c(C)c1Br`, the IC50 in [7], in [8] and in data set [9] was > 79.4 µM (inactive) throughout.

On to `Nc1nc2ccccc2n1S(=O)(=O)c1cccc2ccccc12`, for which the IC50 (in [10]; in the data set on HEK293; at Tumor necrosis factor; in data set [11]) was > 20 µM (inactive) each time.
